These results are taken from PubChem BioAssay (NCI).

Among the test systems are HT29 colon; M14 melanoma; HCC-2998 colon; EKVX NSCLC; UO-31 renal; RXF 393 renal; OVCAR-3 ovarian; BT-549 breast; KM12 colon; CAKI-1 renal.
What all share (assay): NCI tumour cell line growth inhibition, 48 h

Several values for one entry are separate records, joined by “and”; a condition that tells them apart may be missing. Equal values may be shown once.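 Exposure lasted 48 hours, with cells grown in 96-well plates and compounds tested at five concentrations. At the GI50, growth is halved. TGI: total growth inhibition.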

`C=CC(=O)N1C[C@@H]2CCOc3c(Cl)c(-c4c(O)cccc4F)c(F)c4ncnc(c34)N2C[C@H]1C`: the GI50 was 18.6 µM with HT29 colon; 12.5 µM in the assay with M14 melanoma; 15.2 µM with HCC-2998 colon; 14.4 µM in the assay on EKVX NSCLC; 12.3 µM in the assay on UO-31 renal; 2.15 µM in the assay on RXF 393 renal. Further, the GI50 in the assay with OVCAR-3 ovarian was 6.11 µM; with BT-549 breast it was 2.48 µM; with KM12 colon it was 14.7 µM; in the assay with CAKI-1 renal, 2.67 µM. The TGI with HT29 colon was found to be 52.5 µM; in the assay on M14 melanoma, 27.7 µM; with HCC-2998 colon, 28.8 µM; in the assay with EKVX NSCLC, 27.8 µM; in the assay on UO-31 renal, 25.3 µM; in the assay on RXF 393 renal it was 15.1 µM. The TGI came to 18.5 µM with OVCAR-3 ovarian, 12.9 µM with BT-549 breast, 36.1 µM in the assay on KM12 colon and 19.4 µM with CAKI-1 renal.
`O=C(c1ccc(C(F)(F)F)c(Cl)c1)N(Cc1ccc(Cl)cc1)c1ccc(-c2cc(C(F)(F)F)[nH]n2)c(O)c1`: the GI50 with HT29 colon is 1.25 µM; in the assay with M14 melanoma it was 1.01 µM; in the assay with HCC-2998 colon, 1.43 µM; with EKVX NSCLC, 1.3 µM; with UO-31 renal it was 0.717 µM; with RXF 393 renal it was 0.923 µM. The GI50 with OVCAR-3 ovarian is 0.845 µM; with BT-549 breast, 1.31 µM; in the assay on KM12 colon, 0.951 µM; in the assay with CAKI-1 renal, 1.01 µM. The TGI in the assay with HT29 colon was found to be 5.55 µM; in the assay with M14 melanoma, 2.43 µM; with HCC-2998 colon it was 4.63 µM; in the assay on EKVX NSCLC, 4.57 µM; with UO-31 renal, 1.65 µM; in the assay with RXF 393 renal it was 2.04 µM. Besides, the TGI in the assay with OVCAR-3 ovarian came out at 2.19 µM; in the assay with BT-549 breast it was 3.99 µM; with KM12 colon, 2.19 µM; in the assay with CAKI-1 renal, 3.04 µM.
Consider `CC(C)(C)c1cc(NC(=O)Nc2ccc(-c3cn4c(n3)sc3cc(OCCN5CCOCC5)ccc34)cc2)no1`, for which the GI50 was 5.61 µM and 0.633 µM and 4.28 µM with HT29 colon; 8.49 µM and 1.28 µM and 6.56 µM with M14 melanoma; 14.1 µM and 11.7 µM and 7.03 µM with HCC-2998 colon; 13 µM and 4.34 µM and > 10 µM with EKVX NSCLC; 3.62 µM and 0.45 µM and 3.93 µM in the assay with UO-31 renal; 0.8 µM and 0.489 µM and 0.881 µM with RXF 393 renal. Further, the GI50 with OVCAR-3 ovarian was 6.61 µM and 1.54 µM and 6.76 µM; with BT-549 breast, 3.52 µM and 0.819 µM and 7.47 µM; in the assay on KM12 colon it was 0.532 µM and 0.496 µM and 0.438 µM; in the assay with CAKI-1 renal, 10.9 µM and 2.6 µM and 6.93 µM. The TGI was 27 µM and 11.4 µM and > 10 µM in the assay on HT29 colon; 26.8 µM and 16 µM and > 10 µM in the assay with M14 melanoma; 61.5 µM and 52.3 µM and > 10 µM with HCC-2998 colon; 34.9 µM and 21.6 µM and > 10 µM with EKVX NSCLC; 18.3 µM and 4.57 µM and > 10 µM in the assay on UO-31 renal; 6.26 µM and 3.49 µM and > 10 µM in the assay on RXF 393 renal. The TGI in the assay with OVCAR-3 ovarian was 19.4 µM and 8.38 µM and > 10 µM; with BT-549 breast, 20.3 µM and 5.16 µM and > 10 µM; in the assay on KM12 colon, 27.3 µM and 14.6 µM and > 10 µM; with CAKI-1 renal it was 31.9 µM and 15.3 µM and > 10 µM.
Regarding `CC(C)(c1ccccc1)c1cc(O)c(C(C)(C)c2ccccc2)cc1O`, the GI50 was 1.64 µM in the assay with HT29 colon; 1.82 µM in the assay on M14 melanoma; 2.98 µM in the assay on HCC-2998 colon; 1.94 µM in the assay on EKVX NSCLC; 2.1 µM in the assay on UO-31 renal; 1.83 µM in the assay on RXF 393 renal. Moreover, the GI50 with OVCAR-3 ovarian is 2.53 µM; with BT-549 breast, 1.57 µM; in the assay on KM12 colon it was 1.96 µM; with CAKI-1 renal, 1.71 µM. The TGI with HT29 colon stood at 8.91 µM; with M14 melanoma, 4.99 µM; with HCC-2998 colon it was 12.8 µM; in the assay with EKVX NSCLC it was 12.5 µM; with UO-31 renal, 11.3 µM; with RXF 393 renal, 6.85 µM. The TGI was 8 µM with OVCAR-3 ovarian, 5.31 µM in the assay with BT-549 breast, 10.8 µM in the assay on KM12 colon and 11.4 µM in the assay on CAKI-1 renal.
Turning to `CC(C)(C)c1cc(/C=N/NC(=O)c2ccccc2NC(=O)c2cccs2)c(O)c(C(C)(C)C)c1`, the GI50 was 0.798 µM in the assay with HT29 colon; 0.459 µM in the assay on M14 melanoma; 0.88 µM in the assay with HCC-2998 colon; 0.365 µM with EKVX NSCLC; 0.269 µM in the assay with UO-31 renal; 3.02 µM with RXF 393 renal. The GI50 is 1.06 µM with OVCAR-3 ovarian, 4.65 µM with BT-549 breast, 0.831 µM in the assay with KM12 colon and 0.536 µM in the assay on CAKI-1 renal. The TGI was greater than 100 µM in the assay on HT29 colon; 16 µM in the assay with M14 melanoma; 30.1 µM in the assay on HCC-2998 colon; greater than 100 µM in the assay on EKVX NSCLC; 15.7 µM with UO-31 renal; 47.4 µM in the assay with RXF 393 renal. Also, the TGI in the assay with OVCAR-3 ovarian is 10.5 µM; in the assay on BT-549 breast, greater than 100 µM; in the assay with KM12 colon, greater than 100 µM; with CAKI-1 renal, greater than 100 µM.
As for `COC(=O)c1cc2oc(/C=C3/SC(=S)N(N)C3=O)cc2n1Cc1ccccc1`, the GI50 in the assay with HT29 colon is 7.47 µM; in the assay with M14 melanoma, 4.33 µM; with HCC-2998 colon it was 3.89 µM; in the assay with EKVX NSCLC, 7.17 µM; in the assay on UO-31 renal it was 3.6 µM; with RXF 393 renal it was 2.01 µM. The GI50 in the assay on OVCAR-3 ovarian is 2.17 µM; in the assay with BT-549 breast it was 3.5 µM; with KM12 colon it was 6.05 µM; with CAKI-1 renal, 2.98 µM. Further, the TGI is 19.4 µM in the assay on HT29 colon; 31.2 µM in the assay with M14 melanoma; 19.1 µM in the assay with HCC-2998 colon; greater than 81.8 µM in the assay on EKVX NSCLC; 10.6 µM in the assay with UO-31 renal; 12.2 µM with RXF 393 renal. Moreover, the TGI was 6.73 µM with OVCAR-3 ovarian, 26.7 µM in the assay with BT-549 breast, greater than 29.7 µM with KM12 colon and 20.6 µM in the assay with CAKI-1 renal.
With `O=C(COc1cccc(/C=C2\CSc3ccc(Cl)cc3C2=O)c1)c1ccc(Cl)cc1`, the GI50 in the assay on HT29 colon is 2.08 µM; with M14 melanoma, 12.4 µM; in the assay on HCC-2998 colon, 10.7 µM; with EKVX NSCLC it was 10.6 µM; in the assay with UO-31 renal it was 12 µM; in the assay with RXF 393 renal it was 14.1 µM. Also, the GI50 in the assay with OVCAR-3 ovarian was 3.8 µM; in the assay on BT-549 breast, 15 µM; in the assay with KM12 colon, 1.76 µM; in the assay on CAKI-1 renal, 12.2 µM. Moreover, the TGI worked out at 4.18 µM in the assay on HT29 colon; 28.2 µM in the assay on M14 melanoma; 22.6 µM with HCC-2998 colon; 38 µM with EKVX NSCLC; 27.2 µM with UO-31 renal; 34.3 µM in the assay on RXF 393 renal. Further, the TGI in the assay with OVCAR-3 ovarian came to 13.6 µM; with BT-549 breast it was 28.8 µM; in the assay with KM12 colon, 4.13 µM; in the assay on CAKI-1 renal, 34.1 µM.
`NC(=S)N/N=C1\c2ccccc2-c2c(F)c(F)c(F)c(F)c21`: the GI50 in the assay on HT29 colon was 2.2 µM; with M14 melanoma, 4.53 µM; in the assay on HCC-2998 colon it was 3.11 µM; in the assay on EKVX NSCLC, 25.4 µM; in the assay on UO-31 renal it was 4.31 µM; with RXF 393 renal, 2.07 µM. Besides, the GI50 was 2.06 µM in the assay on OVCAR-3 ovarian, 4.92 µM in the assay with BT-549 breast, 5.88 µM in the assay on KM12 colon and 2.34 µM with CAKI-1 renal. Further, the TGI is 5.07 µM with HT29 colon; 15.6 µM with M14 melanoma; 9.37 µM in the assay with HCC-2998 colon; greater than 100 µM in the assay with EKVX NSCLC; 9.03 µM in the assay on UO-31 renal; 3.85 µM with RXF 393 renal. Besides, the TGI was determined as 3.88 µM in the assay with OVCAR-3 ovarian, 10.7 µM with BT-549 breast, 16.3 µM with KM12 colon and 7.16 µM in the assay on CAKI-1 renal.
As to `COc1ccc(C2CC(c3ccc(Nc4ccnc5cc(Cl)ccc45)cc3)=NN2C=O)cc1` (configuration not stated), the GI50 in the assay on HT29 colon was 3.81 µM; in the assay on M14 melanoma, 7.67 µM; with HCC-2998 colon, 18.1 µM; in the assay on EKVX NSCLC it was greater than 100 µM; in the assay with UO-31 renal, 19.7 µM; in the assay with RXF 393 renal, 11.6 µM. Moreover, the GI50 with OVCAR-3 ovarian is 14.5 µM; in the assay with BT-549 breast, 10.9 µM; with KM12 colon, 16.5 µM; with CAKI-1 renal, greater than 100 µM. Further, the TGI with HT29 colon, in the assay with M14 melanoma, in the assay with HCC-2998 colon, with EKVX NSCLC, in the assay on UO-31 renal and in the assay on RXF 393 renal was greater than 100 µM throughout. The TGI was 55.4 µM in the assay with OVCAR-3 ovarian, 36.6 µM in the assay on BT-549 breast, greater than 100 µM with KM12 colon and greater than 100 µM in the assay on CAKI-1 renal.
For the molecule `CCc1cnn2c(NCc3ccc[n+]([O-])c3)cc(N3CCCC[C@H]3CCO)nc12`, the GI50 was < 0.01 µM and 0.00441 µM with HT29 colon; < 0.01 µM and 0.00438 µM with M14 melanoma; < 0.01 µM and 0.0045 µM in the assay with HCC-2998 colon; < 0.01 µM and 0.00902 µM with EKVX NSCLC; 0.0201 µM and 0.0228 µM in the assay on UO-31 renal; < 0.01 µM and 0.00188 µM in the assay with RXF 393 renal. Further, the GI50 was 0.00327 µM in the assay on OVCAR-3 ovarian; < 0.01 µM and 0.00331 µM in the assay with BT-549 breast; < 0.01 µM and 0.0034 µM with KM12 colon; 0.0491 µM and 0.00911 µM in the assay on CAKI-1 renal. The TGI is 0.0235 µM and 0.0351 µM in the assay on M14 melanoma; 0.0492 µM and 0.0347 µM with HCC-2998 colon; 0.138 µM and 0.0524 µM in the assay on EKVX NSCLC; 0.0692 µM in the assay with UO-31 renal; < 0.01 µM and 0.00446 µM in the assay with RXF 393 renal; greater than 10 µM with OVCAR-3 ovarian. The TGI with BT-549 breast is < 0.0183 µM and 0.0305 µM; in the assay on KM12 colon it was greater than 10 µM; in the assay on CAKI-1 renal, greater than 63.4 µM.
Consider `COCCOC1=CC(=O)c2c(O)ccc(O)c2C1=O`, for which the GI50 in the assay on HT29 colon was 0.995 µM; in the assay on M14 melanoma, 0.818 µM; with HCC-2998 colon, 1.7 µM; in the assay with UO-31 renal, 1.63 µM; in the assay on RXF 393 renal, 1.5 µM; in the assay with OVCAR-3 ovarian it was 0.319 µM. The GI50 with KM12 colon is 3.05 µM; in the assay with CAKI-1 renal it was 1.68 µM. Also, the TGI with HT29 colon was 2.05 µM and 2.64 µM; with M14 melanoma, 0.353 µM and 2.16 µM; in the assay with HCC-2998 colon, 4.03 µM and 3.12 µM; in the assay on EKVX NSCLC, 3.88 µM and 3.93 µM; in the assay with UO-31 renal, 3.83 µM and 3.35 µM; in the assay with RXF 393 renal, 3.63 µM and 2.94 µM. Also, the TGI was 1.86 µM and 1.13 µM in the assay on OVCAR-3 ovarian; 3.17 µM in the assay with BT-549 breast; 3.54 µM and 11.7 µM in the assay with KM12 colon; 4.37 µM and 3.14 µM with CAKI-1 renal.
